Experimental data as given in US6828327B2, “Macroheterocylic compounds useful as kinase inhibitors” (Ortho-McNeil Pharmaceutical, Inc., priority 2000, dated 2004).

Tests used:
Insulin-R kinase = target: T1, Insulin-R kinase (Homo sapiens, UniProt P06213); experiment: Biotinylated Peptide Substrate Assay, Insulin-R kinase; type: biochemical
T1 construct: consists of residues 941-1313 of the cytoplasmic domain of the beta-subunit of the human insulin receptor; purchased BIOMOL, Plymouth Meeting, Pa; SE-195
Experimental: (§1) Assays to test inhibition of a compound for other kinases were preformed using methods that measure the amount of phosphorylation of a biotinylated peptide substrate. Biotinylated peptide substrates were selected from the literature as appropriate for the enzyme being evaluated.
(§2) A kinase reaction mix was prepared in 50 mM Tris-HCl pH=8, 10 mM MgCl2, 0.1 mM Na3VO4, 1 mM DTT, 10 μM ATP, 0.25-1 μM biotinylated peptide substrate, 0.2-0.8 μCuries per well ^33P-γ-ATP (2000-3000 Ci/mmol). Assay conditions vary slightly for each protein kinase, for example, insulin receptor kinase requires 10 mM MnCl2 for activity and Calmodulin-dependent protein kinase requires calmodulin and 10 mM CaCl2. The reaction mixture was dispensed into the wells of a streptavidin coated Flashplate and 1 μL drug stock in 100% DMSO was added to a 100 μL reaction volume resulting in a final concentration of 1% DMSO in the reaction. Enzyme was diluted in 50 mM Tris-HCl pH=8.0, 0.1% BSA and added to each well. The reaction was incubated for one hour at 30° C. in the presence of compound. After one hour the reaction mix was aspirated from the plate and the plate was washed with PBS containing 100 mM EDTA. The plate was read on a scintillation counter to determine ^33P-γ-ATP incorporated into the immobilized peptide. Test compounds were assayed in duplicate at 8 concentrations (100 uM, 10 uM, 1 uM, 100 nM, 10 nM, 1 nM, 100 pM, 10 pM). A maximum and minimum signal for the assay was determined on each plate.
(§3) The IC50 was calculated from the dose response curve of the percent inhibition of the maximum signal in the assay according to the formula:
(§4) % Inhibition=((MS−BS)/(TCS−BS))×100%
(§5) where MS=Maximum Signal, BS=Background Signal, TCS=Test Compound Signal. The percent inhibition was graphed against the log concentration of the test compound. Known inhibitor compounds as appropriate references for the kinase being assayed were also included on each plate.
(§6) VEGF-R (vascular endothelial growth factor receptor-2) is a fusion protein containing a polyhistidine tag at the N-terminus followed by amino acids 786-1343 of the rat VEGF-R2 kinase domain (GenBank Accession #U93306). Protein Kinase A is the catalytic subunit of cAMP dependent protein kinase-A purified from bovine heart (Upstate Biotech, Lake Placid, N.Y., Cat#14-114). CDK1 (cyclin dependent kinase 1) is isolated from insect cells expressing both the human CDK1 catalytic subunit and its positive regulatory subunit cyclin B (New England Biolabs, Beverly, Mass., Cat. #6020). Casein Kinase-1 is a protein truncation at amino acid 318 of the C-terminal portion of the rat CK1 delta isoform produced in E.coli (New England Biolabs, Beverly, Mass., Cat. #6030). […]

CDK1 = target: T2, CDK1 (Homo sapiens, UniProt P06493); experiment: Biotinylated Peptide Substrate Assay, CDK1; type: biochemical; conditions: read-out: CDK1 Kinase Assay (IC50 uM)
T2 construct: purchased New England Biolabs, Beverly, Mass; 6020; host or cells: insect cells
Experimental: as §1, §2, §3, §4, §5, §6

GSK 3-β = target: T3, GSK 3-β (Oryctolagus cuniculus, UniProt G1T8E2); experiment: Glycogen Synthase Kinase 3-β Assay; type: biochemical, rabbit; conditions: inhibition value, recombinant rabbit GSK 3-β, PPI-2 substrate
T3 construct: purchased New England Biolabs, Beverly Mass
Experimental: The inhibitory activity of a compound against Glycogen Synthase Kinase 3-β (GSK 3-β) activity was assessed using a recombinant rabbit GSK 3-β according to the procedure below.
The mixture was reacted for 90 minutes at 30° C. to allow phosphorylation of the PPI-2 protein and then the protein in the reaction was precipitated using 10% trichloroacetic acid (TCA). The precipitated protein was collected on filter plates (MultiScreen-DV, Millipore, Bedford Mass.), which were subsequently washed. Finally, the radioactivity was quantified using a TopCount Scintillation Counter (Packard, Meridian Conn.). […] Staurosporine or Valproate (both available from several commercial sources), known inhibitors of GSK-3-β, were used as a positive control for screening.

PKC-βI = target: T4, PKC-βI (Homo sapiens, UniProt P05771); experiment: Protein Kinase C Scintillation Proximity Assay (SPA), PKC-βI; type: biochemical; conditions: inhibition value, recombinant human isozyme, 1 μM ATP
T4 construct: purchased PanVera, Madison Wis; host or cells: baculovirus expression vector
Experimental: (§7) The binding activity of a compound for Protein Kinase C (PKC) was assessed using a homogeneous Scintillation Proximity Assay according to the procedure below.
(§8) The different human PKC isozymes (were obtained from PanVera, Madison Wis. and had been prepared as recombinant enzymes produced from a baculovirus expression vector) were added to a reaction mixture containing a test compound, 20 mM HEPES (pH 7.4), 100 μM CaCl2, 10 mM MgCl2, 100 μg/mL phosphatidylserine, 20 μg/mL diacylglycerol, 1 μM ATP, 0.8 μCi (^33P)ATP, and 5 μg/mL biotinylated substrate peptide (Jing Zhao et al., J. Bio. Chem., 1998, 273, 23072). The reaction was incubated for 15 min at 30° C. Reactions were terminated by the addition of streptavidin-coated SPA beads (Amersham) in a solution containing 1 mM EGTA, 10 mM EDTA and 100 μM ATP. Beads were allowed to settle overnight and the plates read in a Wallac MICROBETA scintillation counter (PerkinElmer Life sciences, Wellesley, Mass.).
(§9) Values for inhibition of various PKC isozymes and GSK 3-β by certain compounds of the invention tested in the PKC SPA and GSK 3-β assays are shown in Table 1.

Map kinase ERK-2 = target: T5, Map kinase ERK-2 (Rattus norvegicus, UniProt P63086); experiment: Biotinylated Peptide Substrate Assay, Map kinase ERK-2; type: biochemical
T5 construct: polyhistidine (N); purchased BIOMOL, Plymouth Meeting, Pa; SE-137; host or cells: E. coli
Experimental: as §1, §2, §3, §4, §5, §6

PKC-βII = target: T6, PKC-βII (Homo sapiens, UniProt P05771); experiment: Protein Kinase C Scintillation Proximity Assay (SPA), PKC-βII; type: biochemical; conditions: inhibition value, recombinant human isozyme, 1 μM ATP
T6 construct: purchased PanVera, Madison Wis; host or cells: baculovirus expression vector
Experimental: as §7, §8, §9

T2 sequence (P06493 whole entry): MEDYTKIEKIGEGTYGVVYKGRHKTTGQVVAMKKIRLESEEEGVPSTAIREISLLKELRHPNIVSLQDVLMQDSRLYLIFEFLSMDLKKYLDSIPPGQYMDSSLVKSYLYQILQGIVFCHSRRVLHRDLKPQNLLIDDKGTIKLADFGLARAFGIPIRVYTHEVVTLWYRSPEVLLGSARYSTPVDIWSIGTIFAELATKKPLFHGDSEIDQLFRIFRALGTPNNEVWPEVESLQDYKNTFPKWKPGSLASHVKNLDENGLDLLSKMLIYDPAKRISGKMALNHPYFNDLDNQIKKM
T2 sequence (P14635 whole entry partner): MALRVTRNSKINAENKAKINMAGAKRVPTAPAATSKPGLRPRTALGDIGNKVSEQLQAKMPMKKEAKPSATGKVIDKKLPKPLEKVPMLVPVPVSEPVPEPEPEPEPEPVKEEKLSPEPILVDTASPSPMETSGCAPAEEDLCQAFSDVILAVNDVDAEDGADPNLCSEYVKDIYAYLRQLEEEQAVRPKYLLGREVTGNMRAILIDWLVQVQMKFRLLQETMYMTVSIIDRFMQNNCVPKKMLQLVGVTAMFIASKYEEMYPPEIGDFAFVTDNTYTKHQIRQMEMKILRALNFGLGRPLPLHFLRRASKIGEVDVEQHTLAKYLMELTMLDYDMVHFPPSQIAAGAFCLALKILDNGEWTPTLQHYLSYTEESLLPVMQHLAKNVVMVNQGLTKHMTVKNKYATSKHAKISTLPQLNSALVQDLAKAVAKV
T1 sequence (P06213 980-1352): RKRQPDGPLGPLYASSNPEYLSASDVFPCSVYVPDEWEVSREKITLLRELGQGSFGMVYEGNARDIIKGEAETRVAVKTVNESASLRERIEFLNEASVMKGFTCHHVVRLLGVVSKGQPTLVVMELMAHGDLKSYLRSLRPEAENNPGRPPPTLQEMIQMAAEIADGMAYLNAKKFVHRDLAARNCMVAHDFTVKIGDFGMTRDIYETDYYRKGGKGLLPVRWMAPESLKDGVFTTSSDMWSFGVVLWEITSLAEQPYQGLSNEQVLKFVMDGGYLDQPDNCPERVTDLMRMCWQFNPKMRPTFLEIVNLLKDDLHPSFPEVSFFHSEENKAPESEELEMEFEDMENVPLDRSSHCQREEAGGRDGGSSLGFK
T5 sequence (P63086 whole entry): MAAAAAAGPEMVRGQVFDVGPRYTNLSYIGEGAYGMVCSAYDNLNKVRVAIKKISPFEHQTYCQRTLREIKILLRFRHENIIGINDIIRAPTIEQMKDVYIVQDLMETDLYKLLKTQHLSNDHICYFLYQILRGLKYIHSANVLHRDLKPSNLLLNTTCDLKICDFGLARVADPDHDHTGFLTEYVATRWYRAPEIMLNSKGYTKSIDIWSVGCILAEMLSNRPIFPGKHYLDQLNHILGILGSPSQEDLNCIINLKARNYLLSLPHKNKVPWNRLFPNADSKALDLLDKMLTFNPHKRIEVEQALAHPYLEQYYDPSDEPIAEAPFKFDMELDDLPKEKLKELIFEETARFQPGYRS
T4 sequence (P05771 whole entry): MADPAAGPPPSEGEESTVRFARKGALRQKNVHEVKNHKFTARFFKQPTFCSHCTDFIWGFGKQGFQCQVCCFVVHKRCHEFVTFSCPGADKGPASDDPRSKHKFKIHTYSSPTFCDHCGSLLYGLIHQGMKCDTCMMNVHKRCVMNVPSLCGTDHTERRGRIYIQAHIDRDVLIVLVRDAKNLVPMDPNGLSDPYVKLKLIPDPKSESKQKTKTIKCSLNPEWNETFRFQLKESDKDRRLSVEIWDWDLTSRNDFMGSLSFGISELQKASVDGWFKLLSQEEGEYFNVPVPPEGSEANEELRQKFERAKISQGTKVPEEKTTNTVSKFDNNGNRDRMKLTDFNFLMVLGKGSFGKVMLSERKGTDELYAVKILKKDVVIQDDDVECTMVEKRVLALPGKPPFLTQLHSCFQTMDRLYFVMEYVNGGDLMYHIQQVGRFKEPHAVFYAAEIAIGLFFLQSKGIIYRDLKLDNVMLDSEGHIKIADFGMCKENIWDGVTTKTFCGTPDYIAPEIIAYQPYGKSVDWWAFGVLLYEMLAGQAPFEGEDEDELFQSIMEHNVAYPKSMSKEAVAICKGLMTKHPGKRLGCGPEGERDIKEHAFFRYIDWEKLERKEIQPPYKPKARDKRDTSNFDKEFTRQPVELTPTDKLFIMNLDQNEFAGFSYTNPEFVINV
T3 sequence (G1T8E2 1-432): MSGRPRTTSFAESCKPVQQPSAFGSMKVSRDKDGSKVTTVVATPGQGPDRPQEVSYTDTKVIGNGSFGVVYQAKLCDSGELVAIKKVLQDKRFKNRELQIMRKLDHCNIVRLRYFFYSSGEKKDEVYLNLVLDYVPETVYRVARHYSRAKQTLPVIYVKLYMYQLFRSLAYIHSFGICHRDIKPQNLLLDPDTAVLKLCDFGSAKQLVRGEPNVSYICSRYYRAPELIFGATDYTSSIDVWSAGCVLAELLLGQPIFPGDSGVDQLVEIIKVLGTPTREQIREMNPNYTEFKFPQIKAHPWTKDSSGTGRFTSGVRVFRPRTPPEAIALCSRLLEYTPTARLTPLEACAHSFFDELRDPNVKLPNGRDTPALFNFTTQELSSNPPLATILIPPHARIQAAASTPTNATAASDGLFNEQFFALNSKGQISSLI
T6 sequence (P05771 1-673 isoform P05771-2): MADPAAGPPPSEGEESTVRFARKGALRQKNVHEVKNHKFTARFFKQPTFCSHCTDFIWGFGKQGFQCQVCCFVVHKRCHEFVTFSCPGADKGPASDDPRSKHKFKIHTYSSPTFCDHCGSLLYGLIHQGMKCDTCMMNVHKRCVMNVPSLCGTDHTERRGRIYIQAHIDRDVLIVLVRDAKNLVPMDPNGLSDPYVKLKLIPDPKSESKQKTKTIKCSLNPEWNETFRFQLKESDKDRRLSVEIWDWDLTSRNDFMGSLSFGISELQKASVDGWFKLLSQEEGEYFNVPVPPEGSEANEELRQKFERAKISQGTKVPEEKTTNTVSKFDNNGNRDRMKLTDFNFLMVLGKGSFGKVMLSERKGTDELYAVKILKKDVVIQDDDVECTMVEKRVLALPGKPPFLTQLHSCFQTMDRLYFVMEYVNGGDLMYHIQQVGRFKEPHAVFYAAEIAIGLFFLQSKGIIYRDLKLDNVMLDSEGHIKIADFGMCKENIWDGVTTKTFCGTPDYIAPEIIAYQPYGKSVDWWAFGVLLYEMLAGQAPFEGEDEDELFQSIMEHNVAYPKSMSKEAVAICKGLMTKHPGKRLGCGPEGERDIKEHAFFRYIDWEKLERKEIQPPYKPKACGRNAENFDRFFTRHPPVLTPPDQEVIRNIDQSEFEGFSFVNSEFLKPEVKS

| IC50 (Insulin-R kinase) [µM] | IC50 (CDK1) [µM] | IC50 (GSK 3-β) [µM] | IC50 (PKC-βI) [µM] | IC50 (Map kinase ERK-2) [µM] | IC50 (PKC-βII) [µM] | Compound |
| --- | --- | --- | --- | --- | --- | --- |
| > 10 | > 10 | 0.027 | 18.5 | > 10 | 2.41 | O=C1NC(=O)C2=C1c1cn(c3ncccc13)CCOCCOCCOCCn1cc2c2cccnc21 [Cpd 1] |
| > 10 | > 10 | 0.032 | > 100 | > 10 | > 100 | O=C1NC(=O)C2=C1c1cn(c3ncccc13)CCOCCOCCOCCOCCn1cc2c2cccnc21 [Cpd 2] |
| > 10 | 0.422 | 0.128 | 5.15 | > 10 | 0.519 | O=C1NC(=O)C2=C1c1cn(c3ccccc13)CCOCCOCCn1cc2c2cccnc21 [Cpd 10] |
| > 10 | 0.457 | 0.015 | 1.06 | > 10 | 0.072 | O=C1NC(=O)C2=C1c1cn(c3ccccc13)CCOCCOCCOCCn1cc2c2cccnc21 [Cpd 11] |
